SMILES strings stand for the structures.

In this assay the target is THP4.1 biosensor (Salmonella typhimurium, UniProt Q8ZR43). Kind of assay: Dose response and ligand response of the THP4.1 biosensor. In kind it is cell-based. To be noted: pThpR reporter.
THP4.1 biosensor, sequence (Q8ZR43 whole entry): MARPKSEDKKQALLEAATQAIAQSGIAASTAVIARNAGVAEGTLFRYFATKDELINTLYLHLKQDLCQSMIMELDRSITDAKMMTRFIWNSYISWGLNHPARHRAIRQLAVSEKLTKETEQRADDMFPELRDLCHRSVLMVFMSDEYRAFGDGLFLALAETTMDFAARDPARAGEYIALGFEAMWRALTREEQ

Take `COc1ccc(C[C@@H]2NCCc3cc(OC)c(O)cc32)cc1O` [norreticuline]: the “responsiveness of THP4.1” value is “somewhat responsive”.

For the origin of these results see article PMC11494455 (Nature chemical biology, 2022).
